From patent US20260083698A1, “Synergistic Stimulation of Mucociliary Clearance to Treat Mucus Obstruction in Cystic Fibrosis and Other Muco-Obstructive Disorders” (The Board of Trustees of the Leland Stanford Junior …, priority 2022, published 2026)

Tests used:
[1] = tested on: piglet or ferret tracheal rings; assay: Airway narrowing: lumen area of thin sliced tracheal rings, carbachol; design: species or system pig; ferret; settings: 0.3 mM carbachol alone
Method: FIG. 2. Elevating cAMP by adenylate cyclase activation inhibited muscle tension and airway narrowing to carbachol. (A, B) To measure muscle tension, one end of an isolated WT ferret trachealis muscle bundle was secured in a Sylgard-lined Petri dish filled with KRB solution and the other end was attached by 26-gauge wire to a previously calibrated strain gauge. […] (red closed circles). Averaged responses at 10 min intervals are shown for: (C) WT piglet tracheas (n=3-7) with forskolin. […] (F). CF ferrets (n=2, one CFTRΔF/ΔF and one CFTRΔF/G551D). […] Used alone they have opposite effects: Ca^2+-elevating agonists contract muscles whereas cAMP-elevating agonists relax them. For therapeutic use, the potential for producing unwanted bronchoconstriction with the combined agonists is a safety concern. […] Tension of ferret trachealis muscle bundles was measured to increasing carbachol concentrations±[…] forskolin. […] Importantly, the protective effect was also observed in CF ferrets (FIG. 2F). Airway smooth muscle contraction measurement. Two methods were used to measure tracheal smooth muscle contraction. One is designed to measure airway narrowing using thin sliced tracheal rings. Piglet or ferret tracheal ring preparations of ˜2 mm were submerged and securely pinned on a Sylgard-lined Petri dish filled with KRB solution at 37° C. and pH 7.4. […] The other method is using a force transducer. […]

[2] = tested on: WT ferret tracheal glands; assay: Optical measurement of glandular mucus secretion rate, WT ferret
Description: Synergistic glandular mucus secretion in WT pigs, WT ferrets, and CF ferrets. Synergistic increases in MCCV rely partly on increased mucus secretion from submucosal glands. This hypothesis arises from evidence that combinations of [Ca^2+]i-elevating and [cAMP]i-elevating agonists produce synergistically elevated rates of mucus from submucosal glands of humans (22), pigs (24), and ferrets (21). However, in those experiments different specific concentrations of agonists were used. To determine if the same protocols used here produced synergistic increases in secretion from submucosal glands, mucus secretion rates of individual tracheal glands in WT pigs and ferrets and in CF ferrets were measured via time-lapse optical imaging (28) while stimulating them with the same concentrations of agonists and durations of exposure used for MCCV studies. All secretion rates are reported as nanoliters/min/gland. WT Ferrets gave similar results (FIG. 3D-F). […] Data for individual WT control ferrets is shown in FIG. 3E for forskolin first and in FIG. 3F for carbachol first. Optical measurement of glandular mucus secretion rate. Details are in the previous report (28). […] Stored images were analyzed by direct measurement or with ImageJ software (V. 1.50i, https://imagej.nih.gov/ij/, NIH, MD/USA).

ferret tracheal mucosa = assay: Short circuit current (Isc), Ussing chamber, ferret; settings: WT ferrets; 30 min single agonist then 30 min combined
Description: FIG. 4. Combined agonists inhibit sodium absorption and stimulate anion secretion by surface epithelia. (A) Cartoon of two electrogenic, ion transport pathways across airway apical epithelium: anion secretion increases surface fluid, Na+ absorption decreases surface fluid. The two pathways have opposite effects on fluid depth, but additive effects on short circuit current (Isc) because of their opposite valence and transport directions. (B) Raw trace of Isc across pig tracheal epithelium using Chart 4 software. After reaching a stable, unstimulated Isc (here, >2 h post-mounting), 10 μM forskolin, 0.3 μM carbachol, 10 μM benzamil, 20 μM benzopyrimido-pyrrolo-oxazinedione (BPO-27) and 200 μM niflumic acid were sequentially added at times shown. (C, D) Pig tracheal mucosa: averaged Δ Isc plots over time in response to (C) forskolin alone followed by forskolin+carbachol and (D) reversed order of agonist addition. (E & F) Ferret tracheal mucosa: averaged A Isc plots with same protocol as for pigs. Pig traces (C, D) are based on 10-12 experiments with tissues from 6 to 7 pigs. Ferret traces (E, F) are from 7 experiments with tissues from 5 ferrets. […]
Electrophysiology. […] Total tissue conductance was calculated by applying Ohm's law to the Isc deflection resulting from a 1 mV pulse across the tissues every 20 s during the experiment. […]

CF ferret tracheas = assay: Mucociliary clearance velocity (MCCV) in ex vivo CF ferret tracheas; settings: for MCCV: 10 μM forskolin, 0.3 μM carbachol, average of last 20 min of single drug period, 10 to 80 min after adding the combined agonists; for CF ferret MCCV response compared to WT ferrets: CF vs WT ferret (WT from ref 16)
Method: Synergistic increases of MCCV in CF ferrets and WT pigs. […] To determine if synergistic increases of MCCV could be produced in CF ferret tracheas, tracheas from 7 transgenic adult CF ferrets of mixed genotype were tested (see “Methods” section). […] SR, synergy response by the combined agonists: 19.95±4.12, (P=0.006 SR vs. Sum). Airway tissue procurement. CF ferret tissues. […] These ferrets were raised on the CFTR modulator VX770. […] Two […]/KO ferret tracheas were used for the tracheal, single gland mucus secretion rate assay. […] All isolated CF ferret tracheal trims (2-3 cm in length) were placed in DMEM culture medium immediately after euthanasia and shipped from the University of Iowa via overnight priority express. MCCV measurement. Details are in the previous reports (16,59,60). Briefly, each whole length ferret or piglet trachea, or a CF tracheal trim, was cut open along the mid-dorsal line and mounted mucosal side up onto a Sylgard elastomer platform. For pig experiments, tracheas from newborn piglets were used because tracheas from adult pigs that had been subjected to acute experiments, our source for submucosal gland experiment, had erratic MCC velocities due to epithelial damage secondary to intubation. […] Drugs were added by bath replacement with pre-warmed bath+drug(s).

WT ferret tracheas = settings: WT ferrets, obtained previously (16); cited from earlier work

Which results are given for `C[N+](C)(C)CCOC(N)=O` [carbachol]?
sustained reduction of lumen area [1]: 20-40%; gland mucus secretion rate [2]: 0.94±0.28 nanoliters/min/gland; ΔIsc, summary plots (ferret tracheal mucosa): decreased directly or after a transient increase; MCCV (CF ferret tracheas; CF ferret tracheas): 3.29±2.08 mm/min; effect on MCCV (CF ferret tracheas; CF ferret tracheas, single agonist, 30 min): only a small increase; CF ferret MCCV response compared to WT ferrets (CF ferret tracheas): ~40%; averaged MCCV of T10-30 to 0.3 μM carbachol in ferret (E) relative to ferrets (A) and (C) (CF ferret tracheas; individual CF ferrets, FIG. 7): less than 5%; MCCV (WT ferret tracheas): 8.24±0.82 mm/min

What does the source list for `C=C[C@@]1(C)CC(=O)[C@]2(O)[C@@]3(C)[C@@H](O)CCC(C)(C)[C@@H]3[C@H](O)[C@H](OC(C)=O)[C@@]2(C)O1` [forskolin]?
gland mucus secretion rate [2]: 0.26±0.07 nanoliters/min/gland; MCCV (CF ferret tracheas; CF ferret tracheas): 0.18±0.09 mm/min; CF ferret MCCV response compared to WT ferrets (CF ferret tracheas): ~0%
